Results on 21 compounds are retold here after US20250320224A1 (DOMAIN THERAPEUTICS, priority 2022, published 2025).

Where a name gives a salt, the structure may show the parent alone. Bounds are passed on as bounds.

In the assay the target is T1, human PAR-2 (hPAR-2) receptor (Homo sapiens, UniProt P55085).
T1 construct: expressed in HEK-293 cells in an endogenous manner; endogenous in cells; host or cells: HEK-293
T1 sequence (P55085 26-397): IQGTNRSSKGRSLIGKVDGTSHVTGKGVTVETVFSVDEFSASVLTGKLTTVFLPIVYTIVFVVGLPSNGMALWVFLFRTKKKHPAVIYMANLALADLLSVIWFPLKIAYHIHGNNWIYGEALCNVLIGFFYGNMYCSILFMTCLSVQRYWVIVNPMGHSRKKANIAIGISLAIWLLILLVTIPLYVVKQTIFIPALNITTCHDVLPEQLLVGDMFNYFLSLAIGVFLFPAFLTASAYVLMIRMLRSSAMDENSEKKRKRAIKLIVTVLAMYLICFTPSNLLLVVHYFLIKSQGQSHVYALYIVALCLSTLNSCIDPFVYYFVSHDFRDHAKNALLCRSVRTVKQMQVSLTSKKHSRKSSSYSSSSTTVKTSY
As to the kind of experiment: In vitro human PAR-2 functional antagonist activity using calcium assays. Format: cell-based. Particulars: hPAR-2 endogenously expressed in HEK-293 cells; stimulated by 2-Furoyl-LIGRLO-NH2 peptide; Fluo4AM intracellular calcium, FLIPR Tetra. The method, then:
Example 283: In Vitro Human PAR-2 Functional Antagonist Activity Using Calcium Assays
Examples of the present invention were tested successively for their agonist and antagonist activities on human PAR-2 (hPAR-2) receptor expressed in HEK-293 cells in an endogenous manner. Compounds exert agonist activity if, by themselves in absence of the 2-Furoyl-LIGRLO-NH2 peptide (selective hPAR-2 agonist), they activate PAR-2; they exert antagonist activity if they decrease the action of the 2-Furoyl-LIGRLO-NH2 peptide on the receptor. The assay used to determine compound activity is based on calcium measurement.
Cell Culture: HEK-293 cells were maintained in Dulbecco's Modified Eagle's Medium supplemented with 10% Foetal Calf Serum, 1% Penicillin/Streptomycin at 37° C./5% CO2. Flasks for tests (F75) are seeded with 6e+06 cells 24 h before the experiment at 37° C./5% CO2.
Calcium assay: Receptor activity was detected by changes in intracellular calcium measured using the fluorescent Ca^2+ sensitive dye, Fluo4AM (Molecular Probes).
The day of the assay, medium was replaced by assay buffer (HBSS 1× (Gibco 14175-053), Hepes 20 mM, MgSO4-7H2O 1 mM, Na2CO3 3.3 mM, CaCl2—2H2O 2.6 mM, 0.5% bovine serum albumin (BSA), Probenecid 2.5 mM, 0.1 mg/mL Pluronic Acid) and complemented with 1 μM Fluo4AM and cells were incubated during 1:30 h at 37° C.
Cells were then detached, resuspended in assay buffer and seeded in 384 wells, transparent-flat bottom black walled plates (2e+04 cells per well). Plates were incubated at +22° C. for 20 min. Compounds stock solutions were prepared in 100% DMSO and dilutions in test buffer were carried out in polypropylene plates with a digital dispenser (D300e, Tecan). Compounds were added to the cells and intracellular Ca^2+ measurements were collected at the same time on FLIPR Tetra® (Molecular Devices) with specific filters (Exc: 470-495 nm/Em: 515-575 nm).
Agonist and antagonist activities of compounds were consecutively evaluated on the same cell plate. Agonist activity was first measured after 10 min incubation with the compound alone. Then, cells were stimulated by an […] of the 2-Furoyl-LIGRLO-NH2 peptide and fluorescence was recorded for an additional 5 min. EC50 of the 2-Furoyl-LIGRLO-NH2 peptide was the concentration giving 80% of the maximal 2-Furoyl-LIGRLO-NH2 response. Agonist activities are evaluated in comparison to basal signals evoked by assay buffer or maximal 2-Furoyl-LIGRLO-NH2 response. […] Antagonist activities are evaluated in comparison to basal signals evoked by assay buffer or EC50 of 2-Furoyl-LIGRLO-NH2 alone.
In general terms: Calcium flux is commonly read through the fluorescence of an indicator in the cells.
For the compound `Cc1cc(N2CCN(C(=O)c3ccc4c(n3)C(C)(C)CN4c3cccc(F)c3)C(C)(C)C2)nc(C)c1C(=O)O` [Example 17, 6-(4-(1-(3-fluorophenyl)-3,3-dimethyl-2,3-dihydro-1H-pyrrolo[3,2-b]pyridine-5-carbonyl)-3,3-dimethylpiperazin-1-yl)-2,4-dimethylnicotinic acid], the IC50 – broadly, the concentration that inhibits the measured activity by half – was less than 500 nM.

Regarding `CC1(C)CN(c2ccc(Cl)c(F)c2)c2ccc(C(=O)N3CCNC(=O)C3(C)C)nc21` [Example 18, 4-(1-(4-chloro-3-fluorophenyl)-3,3-dimethyl-2,3-dihydro-1H-pyrrolo[3,2-b]pyridine-5-carbonyl)-3,3-dimethylpiperazin-2-one], the IC50 was less than 500 nM. For `CCN1CCN(C(=O)c2ccc3c(n2)C(C)(C)CN3c2ccc(Cl)c(F)c2)C(C)(C)C1=O` [Example 19, 4-(1-(4-chloro-3-fluorophenyl)-3,3-dimethyl-2,3-dihydro-1H-pyrrolo[3,2-b]pyridine-5-carbonyl)-1-ethyl-3,3-dimethylpiperazin-2-one], the IC50 is less than 500 nM. For `CC1(C)CN(c2ccc(Cl)c(F)c2)c2ccc(C(=O)N3CCOCC3(C)C)nc21` [Example 20, (1-(4-chloro-3-fluorophenyl)-3,3-dimethyl-2,3-dihydro-1H-pyrrolo[3,2-b]pyridin-5-yl)(3,3-dimethylmorpholino)methanone] the value was less than 500 nM. Take `CC(C)(C)OC(=O)N1CCN(C(=O)c2ccc3c(n2)C(C)(C)CN3c2ccc(Cl)c(F)c2)C(C)(C)C1` [Example 21, tert-butyl 4-(1-(4-chloro-3-fluorophenyl)-3,3-dimethyl-2,3-dihydro-1H-pyrrolo[3,2-b]pyridine-5-carbonyl)-3,3-dimethylpiperazine-1-carboxylate]: the IC50 is less than 500 nM. As for `CC1(C)CN(c2ccc(Cl)c(F)c2)c2ccc(C(=O)N3CCNCC3(C)C)nc21` [Example 22, (1-(4-chloro-3-fluorophenyl)-3,3-dimethyl-2,3-dihydro-1H-pyrrolo[3,2-b]pyridin-5-yl)(2,2-dimethylpiperazin-1-yl)methanone hydrochloride], the IC50 is 500 to 10000 nM. `CCN1CCN(C(=O)c2ccc3c(n2)C(C)(C)CN3c2ccc(Cl)c(F)c2)C(C)(C)C1` [Example 23, (1-(4-chloro-3-fluorophenyl)-3,3-dimethyl-2,3-dihydro-1H-pyrrolo[3,2-b]pyridin-5-yl)(4-ethyl-2,2-dimethylpiperazin-1-yl)methanone hydrochloride]: the IC50 is 500 to 10000 nM. With `CC(=O)N1CCN(C(=O)c2ccc3c(n2)C(C)(C)CN3c2ccc(Cl)c(F)c2)C(C)(C)C1` [Example 24, 1-(4-(1-(4-chloro-3-fluorophenyl)-3,3-dimethyl-2,3-dihydro-1H-pyrrolo[3,2-b]pyridine-5-carbonyl)-3,3-dimethylpiperazin-1-yl)ethan-1-one], the IC50 was 500 to 10000 nM. The result for `CC1(C)CN(c2ccc(Cl)c(F)c2)c2ccc(C(=O)N3CCN(C(=O)CCC(=O)O)CC3(C)C)nc21` [Example 26, 4-(4-(1-(4-chloro-3-fluorophenyl)-3,3-dimethyl-2,3-dihydro-1H-pyrrolo[3,2-b]pyridine-5-carbonyl)-3,3-dimethylpiperazin-1-yl)-4-oxobutanoic acid] reads 500 to 10000 nM. For `CCOC(=O)CCCC(=O)N1CCN(C(=O)c2ccc3c(n2)C(C)(C)CN3c2ccc(Cl)c(F)c2)C(C)(C)C1` [Example 27, ethyl 5-(4-(1-(4-chloro-3-fluorophenyl)-3,3-dimethyl-2,3-dihydro-1H-pyrrolo[3,2-b]pyridine-5-carbonyl)-3,3-dimethylpiperazin-1-yl)-5-oxopentanoate] the value was less than 500 nM. `CC1(C)CN(c2ccc(Cl)c(F)c2)c2ccc(C(=O)N3CCN(C(=O)CCCC(=O)O)CC3(C)C)nc21` [Example 28, 5-(4-(1-(4-chloro-3-fluorophenyl)-3,3-dimethyl-2,3-dihydro-1H-pyrrolo[3,2-b]pyridine-5-carbonyl)-3,3-dimethylpiperazin-1-yl)-5-oxopentanoic acid]: the IC50 is 500 to 10000 nM. The result for `CN1CNC(=O)C12CCN(C(=O)c1ccc3c(n1)C(C)(C)CN3c1ccc(Cl)c(F)c1)CC2` [Example 29, 8-(1-(4-chloro-3-fluorophenyl)-3,3-dimethyl-2,3-dihydro-1H-pyrrolo[3,2-b]pyridine-5-carbonyl)-1-methyl-1,3,8-triazaspiro[4.5]decan-4-one] reads 500 to 10000 nM; that for `CC1(C)CN(c2ccc(Cl)c(F)c2)c2ccc(C(=O)N3C[C@@H]4[C@@H](CC(=O)O)[C@@H]4C3)nc21` [Example 31, 2-((1R,5S,6S)-3-(1-(4-chloro-3-fluorophenyl)-3,3-dimethyl-2,3-dihydro-1H-pyrrolo[3,2-b]pyridine-5-carbonyl)-3-azabicyclo[3.1.0]hexan-6-yl)acetic acid], less than 500 nM; that for `CC1(C)CN(c2ccc(Cl)c(F)c2)c2ccc(C(=O)N3CCC(C(=O)O)CC3)nc21` [Example 33, 1-(1-(4-chloro-3-fluorophenyl)-3,3-dimethyl-2,3-dihydro-1H-pyrrolo[3,2-b]pyridine-5-carbonyl)piperidine-4-carboxylic acid], 500 to 10000 nM.

As to `CC1(C)CN(c2ccc(Cl)c(F)c2)c2ccc(C(=O)N3CCC(CC(=O)O)CC3)nc21` [Example 35, 2-(1-(1-(4-chloro-3-fluorophenyl)-3,3-dimethyl-2,3-dihydro-1H-pyrrolo[3,2-b]pyridine-5-carbonyl)piperidin-4-yl)acetic acid], the IC50 is 500 to 10000 nM. Consider `CO[C@H]1CN(C(=O)c2ccc3c(n2)C(C)(C)CN3c2ccc(Cl)c(F)c2)CC[C@H]1CC(=O)O` [Example 37, 2-((3R,4S)-1-(1-(4-chloro-3-fluorophenyl)-3,3-dimethyl-2,3-dihydro-1H-pyrrolo[3,2-b]pyridine-5-carbonyl)-3-methoxypiperidin-4-yl)acetic acid], for which the half-maximal inhibitory concentration (IC50) was 500 to 10000 nM. For the compound `Cc1nc(N2CCN(C(=O)c3ccc4c(n3)C(C)(C)CN4c3ccc(Cl)c(F)c3)C(C)(C)C2)ncc1C(=O)O` [Example 39, 2-(4-(1-(4-chloro-3-fluorophenyl)-3,3-dimethyl-2,3-dihydro-1H-pyrrolo[3,2-b]pyridine-5-carbonyl)-3,3-dimethylpiperazin-1-yl)-4-methylpyrimidine-5-carboxylic acid hydrochloride], the IC50 is less than 500 nM.

Take `CC1(C)CN(c2ccc(Cl)c(F)c2)c2ccc(C(=O)N3CCN(c4ncc(C(=O)O)cn4)CC3(C)C)nc21` [Example 41, 2-(4-(1-(4-chloro-3-fluorophenyl)-3,3-dimethyl-2,3-dihydro-1H-pyrrolo[3,2-b]pyridine-5-carbonyl)-3,3-dimethylpiperazin-1-yl)-pyrimidine-5-carboxylic acid hydrochloride]: the IC50 is less than 500 nM. On to `CC1(C)CN(c2ccc(Cl)c(F)c2)c2ccc(C(=O)N3CCN(c4nc(C(=O)O)cs4)CC3(C)C)nc21` [Example 43, 2-(4-(1-(4-chloro-3-fluorophenyl)-3,3-dimethyl-2,3-dihydro-1H-pyrrolo[3,2-b]pyridine-5-carbonyl)-3,3-dimethylpiperazin-1-yl)thiazole-4-carboxylic acid], for which the concentration for half-maximal inhibition (IC50) is less than 500 nM. As to `Cc1cc(N2CCN(C(=O)c3ccc4c(n3)C(C)(C)CN4c3ccc(Cl)c(F)c3)C(C)(C)C2)nc(C)c1C(=O)O` [Example 45, 6-(4-(1-(4-chloro-3-fluorophenyl)-3,3-dimethyl-2,3-dihydro-1H-pyrrolo[3,2-b]pyridine-5-carbonyl)-3,3-dimethylpiperazin-1-yl)-2,4-dimethylnicotinic acid], the IC50 was less than 500 nM.

`C[C@H](CC(=O)O)N(C)C(=O)c1ccc2c(n1)C(C)(C)CN2c1ccc(Cl)c(F)c1` [Example 47, (R)-3-(1-(4-chloro-3-fluorophenyl)-N,3,3-trimethyl-2,3-dihydro-1H-pyrrolo[3,2-b]pyridine-5-carboxamido)butanoic acid]: the IC50 fell in the range of 500 to 10000 nM.
